Columns and labels:
[1] = tested on: Glomerella lagenarium (Colletotrichum lagenarium); assay: Glomerella lagenarium (Colletotrichum lagenarium) / liquid culture (anthracnose); type: cell-based; details: Colletotrichum orbiculare, PDB liquid culture, 24° C., growth inhibition measured photometrically 3-4 days after application, vs untreated control
Description: (§1) Example B2: Glomerella lagenarium (Colletotrichum lagenarium)/Liquid Culture (Anthracnose) Conidia of the fungus from cryogenic storage are directly mixed into nutrient broth (PDB potato dextrose broth). After placing a (DMSO) solution of test compound into a microtiter plate (96-well format), the nutrient broth containing the fungal spores is added. The test plates are incubated at 24° C. and the inhibition of growth is measured photometrically 3-4 days after application. […] […]-49, and P-50.

[2] = tested on: Monographella nivalis (Microdochium nivale); assay: Monographella nivalis (Microdochium nivale) / liquid culture (foot rot cereals); type: cell-based; details: PDB liquid culture, 24° C., growth inhibition determined photometrically 4-5 days after application, vs untreated control
Description: as §1, with “B5: Monographella nivalis (Microdochium nivale)/Liquid” for “B2: Glomerella lagenarium (Colletotrichum lagenarium)/Liquid”, “(Foot Rot Cereals)” for “(Anthracnose)”, “determined” for “measured”, “4-5” for “3-4”

[3] = tested on: Mycosphaerella arachidis (Cercospora arachidicola); assay: Mycosphaerella arachidis (Cercospora arachidicola) / liquid culture (early leaf spot); type: cell-based; details: PDB liquid culture, 24° C., growth inhibition determined photometrically 4-5 days after application, vs untreated control
Description: Example B6: Mycosphaerella arachidis (Cercospora arachidicola)/Liquid Culture (Early Leaf Spot) Conidia of the fungus from cryogenic storage are directly mixed into nutrient broth (PDB potato dextrose broth). After placing a (DMSO) solution of test compound into a microtiter plate (96-well format), the nutrient broth containing the fungal spores is added. The test plates are incubated at 24° C. and the inhibition of growth is determined photometrically 4-5 days after application. […] […]-44, and P-48.

[4] = tested on: Mycosphaerella graminicola (Septoria tritici); assay: Mycosphaerella graminicola (Septoria tritici) / liquid culture (Septoria blotch); type: cell-based; details: Zymoseptoria tritici, PDB liquid culture, 24° C., growth inhibition determined photometrically 4-5 days after application, vs untreated control
Description: Example B12: Mycosphaerella graminicola (Septoria tritici)/Liquid Culture (Septoria Blotch) Conidia of the fungus from cryogenic storage are directly mixed into nutrient broth (PDB potato dextrose broth). After placing a (DMSO) solution of test compound into a microtiter plate (96-well format), the nutrient broth containing the fungal spores is added. The test plates are incubated at 24° C. and the inhibition of growth is determined photometrically 4-5 days after application. […] […]-48, and P-49.

Alternaria solani = Alternaria solani / tomato / leaf disc (early blight); type: in vivo; details: foliar, tomato leaf disks cv. Baby, inoculated 2 days after application, assessed 5-7 days after application, vs untreated control
Description: Example B1: Alternaria solani/Tomato/Leaf Disc (Early Blight) Tomato leaf disks cv. Baby are placed on agar in multiwell plates (24-well format) and sprayed with the formulated test compound diluted in water. The leaf disks are inoculated with a spore suspension of the fungus 2 days after application. The inoculated leaf disks are incubated at 23° C./21° C. […] […]-43, and P-44.

[5] = tested on: Blumeria graminis f. sp. tritici (Erysiphe graminis f. sp. tritici); assay: Blumeria graminis f. sp. tritici / wheat / leaf disc preventative (powdery mildew on wheat); type: in vivo; details: foliar, wheat leaf segments cv. Kanzler, inoculated 1 day after application, assessed 6-8 days after application, vs untreated control
Description: Example B3: Blumeria graminis f. sp. tritici (Erysiphe graminis f. so. tritici)/Wheat/Leaf Disc Preventative (Powdery Mildew on Wheat) Wheat leaf segments cv. Kanzler are placed on agar in a multiwell plate (24-well format) and sprayed with the formulated test compound diluted in water. The leaf disks are inoculated by shaking powdery mildew infected plants above the test plates 1 day after application. The inoculated leaf disks are incubated at 20°° C. and 60% rh under a light regime of 24 h darkness followed by 12 h light/12 h darkness in a climate chamber and the activity of a compound is assessed as percent disease control compared to untreated when an appropriate level of disease damage appears on untreated check leaf segments (6-8 days after application). […]-45, and P-50.

[6] = tested on: Puccinia recondita f. sp. tritici; assay: Puccinia recondita f. sp. tritici / wheat / leaf disc preventative (brown rust); type: in vivo; details: foliar, wheat leaf segments cv. Kanzler, inoculated 1 day after application, assessed 7-9 days after application, vs untreated control
Description: Example B8: Puccinia recondita f. sp. tritici/Wheat/Leaf Disc Preventative (Brown rust) Wheat leaf segments cv. Kanzler are placed on agar in multiwell plates (24-well format) and sprayed with the formulated test compound diluted in water. The leaf disks are inoculated with a spore suspension of the fungus 1 day after application. The inoculated leaf segments are incubated at 19° C. and 75% rh under a light regime of 12 h light/12 h darkness in a climate cabinet and the activity of a compound is assessed as percent disease control compared to untreated when an appropriate level of disease damage appears in untreated check leaf segments (7-9 days after application).

[7] = tested on: Magnaporthe grisea (Pyricularia oryzae); assay: whole plant or invertebrate; type: in vivo; details: foliar, read-out: control of Magnaporthe grisea

COc1ncc(NC2CCCC2)nc1C(=O)NC1CCC1(C)C (centres unmarked) [Compound P-1, 6-(cyclopentylamino)-N-(2,2-dimethylcyclobutyl)-3-methoxy-pyrazine-2-carboxamide]
≥ 80%: inhibition of growth at 20 ppm [1] | inhibition of growth at 20 ppm [2] | inhibition of growth at 20 ppm [3] | inhibition of growth at 20 ppm [4]

COc1ncc(Nc2ccccc2)nc1C(=O)NC1CCC1(C)C (centres unmarked) [Compound P-4, 6-anilino-N-(2,2-dimethylcyclobutyl)-3-methoxy-pyrazine-2-carboxamide]
≥ 80%: pest or weed control at 200 ppm (Alternaria solani) | inhibition of growth at 20 ppm [1] | pest or weed control at 200 ppm [5] | inhibition of growth at 20 ppm [2] | inhibition of growth at 20 ppm [3] | pest or weed control at 200 ppm [6] | inhibition of growth at 20 ppm [4]

COc1ncc(Nc2cccc(F)c2)nc1C(=O)NC1CCC1(C)C (centres unmarked) [Compound P-5, N-(2.2-dimethylcyclobutyl)-6-(3-fluoroanilino)-3-methoxy-pyrazine-2-carboxamide]
≥ 80%: pest or weed control at 200 ppm (Alternaria solani) | inhibition of growth at 20 ppm [1] | pest or weed control at 200 ppm [5] | inhibition of growth at 20 ppm [2] | inhibition of growth at 20 ppm [3] | pest or weed control at 200 ppm [6] | pest or weed control at 200 ppm [7] | inhibition of growth at 20 ppm [4]

COc1ncc(NCC2CC2)nc1C(=O)NC1CCC1(C)C (centres unmarked) [Compound P-9, 6-(cyclopropylmethylamino)-N-(2,2-dimethylcyclobutyl)-3-methoxy-pyrazine-2-carboxamide]
≥ 80%: pest or weed control at 200 ppm (Alternaria solani) | inhibition of growth at 20 ppm [1] | pest or weed control at 200 ppm [5] | inhibition of growth at 20 ppm [2] | inhibition of growth at 20 ppm [3] | pest or weed control at 200 ppm [6] | inhibition of growth at 20 ppm [4]

COc1ncc(Nc2cnsc2)nc1C(=O)NCc1ccc(Oc2ccccc2)cc1 [Compound P-13, 6-(isothiazol-4-ylamino)-3-methoxy-N-[(4-phenoxyphenyl)methyl] pyrazine-2-carboxamide]
≥ 80%: pest or weed control at 200 ppm (Alternaria solani) | inhibition of growth at 20 ppm [1] | inhibition of growth at 20 ppm [2] | inhibition of growth at 20 ppm [3] | pest or weed control at 200 ppm [7] | inhibition of growth at 20 ppm [4]

COc1ncc(Nc2cc(F)cc(F)c2)nc1C(=O)NC1C2CCOC2C1(C)C (centres unmarked) [Compound P-16, 6-(3,5-difluoroanilino)-N-(7,7-dimethyl-2-oxabicyclo[3.2.0]heptan-6-yl)-3-methoxy-pyrazine-2-carboxamide]
≥ 80%: pest or weed control at 200 ppm (Alternaria solani) | inhibition of growth at 20 ppm [1] | pest or weed control at 200 ppm [5] | inhibition of growth at 20 ppm [2] | inhibition of growth at 20 ppm [3] | pest or weed control at 200 ppm [7] | inhibition of growth at 20 ppm [4]

COc1ncc(Nc2cc(F)cc(F)c2)nc1C(=O)NC1COC2(CC2)C1 (centres unmarked) [Compound P-20, 6-(3,5-difluoroanilino)-3-methoxy-N-(4-oxaspiro[2.4]heptan-6-yl)pyrazine-2-carboxamide]
≥ 80%: pest or weed control at 200 ppm (Alternaria solani) | inhibition of growth at 20 ppm [1] | pest or weed control at 200 ppm [5] | inhibition of growth at 20 ppm [2] | inhibition of growth at 20 ppm [3] | pest or weed control at 200 ppm [6] | pest or weed control at 200 ppm [7] | inhibition of growth at 20 ppm [4]

COc1ncc(Nc2cc(F)cc(F)c2)nc1C(=O)NCC1(C)CCOC1 (centres unmarked) [Compound P-21]
≥ 80%: inhibition of growth at 20 ppm [1] | pest or weed control at 200 ppm [5] | inhibition of growth at 20 ppm [2] | pest or weed control at 200 ppm [7] | inhibition of growth at 20 ppm [4]

COc1ncc(Nc2cc(F)cc(F)c2)nc1C(=O)NC1COC(C2CC2)C1 (centres unmarked) [Compound P-24, N-(5-cyclopropyltetrahydrofuran-3-yl)-6-(3,5-difluoroanilino)-3-methoxy-pyrazine-2-carboxamide]
≥ 80%: inhibition of growth at 20 ppm [1] | pest or weed control at 200 ppm [5] | inhibition of growth at 20 ppm [2] | inhibition of growth at 20 ppm [3] | inhibition of growth at 20 ppm [4]

COc1ncc(Nc2cc(F)cc(F)c2)nc1C(=O)NC1CC2CCOC21 (centres unmarked) [Compound P-28, 6-(3,5-difluoroanilino)-3-methoxy-N-(2-oxabicyclo[3.2.0]heptan-7-yl)pyrazine-2-carboxamide]
≥ 80%: pest or weed control at 200 ppm (Alternaria solani) | inhibition of growth at 20 ppm [1] | pest or weed control at 200 ppm [5] | pest or weed control at 200 ppm [7]

COc1ncc(Nc2cc(F)cc(F)c2)nc1C(=O)NCc1cccc2c1OC(F)(F)O2 [Compound P-29, 6-(3,5-difluoroanilino)-N-[(2,2-difluoro-1.3-benzodioxol-4-yl)methyl]-3-methoxy-pyrazine-2-carboxamide]
≥ 80%: inhibition of growth at 20 ppm [1] | inhibition of growth at 20 ppm [2] | inhibition of growth at 20 ppm [3] | pest or weed control at 200 ppm [6] | pest or weed control at 200 ppm [7] | inhibition of growth at 20 ppm [4]

COc1ncc(Nc2cc(F)cc(F)c2)nc1C(=O)NCc1ccc(Oc2ccccc2)cc1 [Compound P-30]
≥ 80%: pest or weed control at 200 ppm (Alternaria solani) | inhibition of growth at 20 ppm [1] | pest or weed control at 200 ppm [5] | inhibition of growth at 20 ppm [2] | inhibition of growth at 20 ppm [3] | pest or weed control at 200 ppm [7] | inhibition of growth at 20 ppm [4]

COc1ncc(Nc2cc(F)nc(F)c2)nc1C(=O)NCC1(C)CCOC2(CCC2)C1 (centres unmarked) [Compound P-34]
≥ 80%: inhibition of growth at 20 ppm [1] | pest or weed control at 200 ppm [6] | pest or weed control at 200 ppm [7]

COc1ncc(Nc2cc(F)cc(F)c2)nc1C(=O)NC1(C)CC1 [Compound P-37, 6-(3,5-difluoroanilino)-3-methoxy-N-(1-methylcyclopropyl) pyrazine-2-carboxamide]
≥ 80%: pest or weed control at 200 ppm (Alternaria solani) | inhibition of growth at 20 ppm [1] | pest or weed control at 200 ppm [5] | inhibition of growth at 20 ppm [2] | pest or weed control at 200 ppm [6] | pest or weed control at 200 ppm [7] | inhibition of growth at 20 ppm [4]

COc1ncc(Nc2cc(F)cc(F)c2)nc1C(=O)NC(C)CCCC(C)C (centres unmarked) [Compound P-40, 6-(3,5-difluoroanilino)-N-(1,5-dimethylhexyl)-3-methoxy-pyrazine-2-carboxamide]
≥ 80%: inhibition of growth at 20 ppm [1] | pest or weed control at 200 ppm [5] | inhibition of growth at 20 ppm [2] | inhibition of growth at 20 ppm [3] | pest or weed control at 200 ppm [6] | pest or weed control at 200 ppm [7] | inhibition of growth at 20 ppm [4]

CC1(NC(=O)c2cncc(Nc3cc(F)cc(F)c3)n2)CCCC1 [Compound P-48, 6-(3,5-difluoroanilino)-N-(1-methylcyclopentyl) pyrazine-2-carboxamide]
≥ 80%: inhibition of growth at 20 ppm [1] | inhibition of growth at 20 ppm [2] | inhibition of growth at 20 ppm [3] | inhibition of growth at 20 ppm [4]
